Measured values: US8450355B2, “Compounds for the treatment of inflammatory diseases” (Merck Sharp & Dohme Corp., priority 2008, dated 2013)

Test system: TNF-α production from human whole blood
Experiment: Inhibition of TNF-α production from human whole blood (hWBA)
Type: cell-based
Conditions: Table A; human whole blood diluted 1:1, LPS stimulation, 3.5 h, TNF-α by ELISA
Description: Assay for Inhibition of TNF-α Production from Human Whole Blood (hWBA)
Human whole blood was diluted 1:1 with serum free medium (RPMI, L-glutamine, Pen-Strep, HEPES) and incubated with a test compound in a final volume of 360 μL for 1 h at 37° C. Forty microliters of LPS (10 μg/mL) was then added. Supernatant was collected after 3.5 h incubation and the concentration of TNF-α was determined by ELISA (R&D Systems). The concentration of the test compound which inhibits 50% of the amount of TNF-α from the control untreated control was determined.

Row | IC50 [nM] | SMILES
1 | 1430 | COc1c(F)cc2c(c1F)C(=O)N(C[C@@]1(C#Cc3ccc(C(N)=O)cc3)NC(=O)NC1=O)C2 [Compound 1180]
2 | 7120 | COc1c(F)cc2c(c1F)C(=O)N(C[C@@]1(c3cc4ncccc4o3)NC(=O)NC1=O)C2 [Compound 1175]
3 | 1890 | CCN1CCN(C(=N)c2ccc3oc([C@]4(CN5Cc6ccc(OC)cc6C5=O)NC(=O)NC4=O)cc3n2)CC1 [Compound 1501]
4 | > 10000 | COCc1cc2c3c(ccc2o1)CN(C[C@@]1(c2cc4ncccc4o2)NC(=O)NC1=O)C3=O [Compound 1702]
5 | 1570 | CCN1CCCN(c2ccc(O)c(CC(=O)[C@]3(CN4Cc5ccc(OC)c(F)c5C4=O)NC(=O)NC3=O)n2)CC1 [Compound 1707]
6 | 1820 | COc1ccc2c(c1)C(=O)N(C[C@@]1(c3cc4nc(C(=N)N5CCCN(C)CC5)ccc4o3)NC(=O)NC1=O)C2 [Compound 1502]
7 | > 10000 | COc1c(F)cc2c(c1F)C(=O)N(CC1(c3cc4cnccc4o3)NC(=O)NC1=O)C2 (centres unmarked) [Compound 1165]
8 | > 10000 | Cc1cc2c3c(ccc2o1)CN(C[C@@]1(c2cc4ncccc4o2)NC(=O)NC1=O)C3=O [Compound 1701]
9 | > 10000 | COc1ccc2c(c1)C(=O)N(C[C@@](O)(C(=O)O)c1cc3cnccc3[nH]1)C2 [Compound 1120B]
10 | 501 | Cc1cc2cc3c(c(F)c2o1)C(=O)N(CC1(c2cc4nc(-c5cn[nH]c5)ccc4o2)NC(=O)NC1=O)C3 (centres unmarked) [Compound 1700]
11 | 3100 | COC(=O)[C@@](CN1Cc2ccc(OC)c(F)c2C1=O)(NC(N)=O)c1cc2nc(Cl)c(F)cc2o1 [Compound 1304]
12 | > 10000 | COc1c(F)cc2c(c1F)C(=O)N(CC1(c3cc4ncccc4o3)NC(=O)NC1=O)C2 (centres unmarked) [Compound 1170]
13 | > 10000 | COc1c(F)cc2c(c1F)C(=O)N(CC1(c3cc4nc(N5CCC(N(C)C)CC5)ccc4o3)NC(=O)NC1=O)C2 (centres unmarked) [Compound 1190]
14 | 640 | COc1ccc2c(c1)C(=O)N(C[C@@]1(c3cc4nc(C(=N)NO)ccc4o3)NC(=O)NC1=O)C2 [Compound 1500]
15 | 7140 | COc1c(F)cc2c(c1F)C(=O)N(C[C@@]1(c3cc4cnccc4o3)NC(=O)NC1=O)C2 [Compound 1160]
16 | 292 | COc1ccc2c(c1)C(=O)N(C[C@@]1(C(=O)Cc3nc(Nc4cn[nH]c4)ccc3O)NC(=O)NC1=O)C2 [Compound 1705]
17 | > 10000 | O=C1NC(=O)[C@](CN2Cc3ccc4oc(C5CC5)cc4c3C2=O)(c2cc3ncccc3o2)N1 [Compound 1704]
18 | > 10000 | O=C1NC(=O)[C@](CN2Cc3ccc4oc(Cc5ccccc5)cc4c3C2=O)(c2cc3ncccc3o2)N1 [Compound 1703]
19 | > 10000 | COc1ccc2c(c1)C(=O)N(C[C@@](N)(C(=O)O)c1cc3cnccc3o1)C2 [Compound 1120A]
20 | > 10000 | COc1c(F)cc2c(c1F)C(=O)N(CC1(C#Cc3ccc(C4(CN)NC(=O)NC4=O)cc3)NC(=O)NC1=O)C2 (centres unmarked) [Compound 1150]

Same assay, conditions: Table B; human whole blood diluted 1:1, LPS stimulation, 3.5 h, TNF-α by ELISA

Row | IC50 [nM] | SMILES
21 | 315 | COc1ccc2c(c1)C(=O)N(C[C@@]1(c3cc4cc(NS(N)(=O)=O)ccc4o3)NC(=O)NC1=O)C2 [Compound 2209]
22 | 813 | COc1ccc2c(c1)C(=O)N(C[C@@]1(C#Cc3ccc(C(=NO)N(C)C)s3)NC(=O)NC1=O)C2 [Compound 2227]
23 | 239 | CCCN(C)C(=NO)c1ccc(C#C[C@]2(CN3Cc4ccc(OC)cc4C3=O)NC(=O)NC2=O)cc1 [Compound 2224]
24 | 281 | CCN(CC)CCN(CC)/C(=N/O)c1ccc2oc([C@]3(CN4Cc5ccc(OC)cc5C4=O)NC(=O)NC3=O)cc2c1 [Compound 2208]
25 | 308 | CCN(CC)CCN(C)/C(=N/O)c1ccc2oc([C@]3(CN4Cc5ccc(OC)cc5C4=O)NC(=O)NC3=O)cc2c1 [Compound 2207]
26 | 3560 | COc1ccc2c(c1)CCN(C[C@@]1(c3cc4c5c(ccc4o3)C3(CC5)NC(=O)NC3=O)NC(=O)NC1=O)C2=O (some centres unmarked) [Compound 2203]
27 | 335 | COc1ccc2c(c1)C(=O)N(C[C@@]1(c3cc4c5c(ccc4o3)C3(CC5)CNC(=O)N3)NC(=O)NC1=O)C2 (some centres unmarked) [Compound 2213]
28 | 284 | COc1ccc2c(c1)CCN(C[C@@]1(c3cc4nc(-c5cn[nH]c5)ccc4o3)NC(=O)NC1=O)C2=O [Compound 2218]
29 | 205 | CCN(CC)C(=NO)c1ccc(C#C[C@]2(CN3Cc4ccc(OC)cc4C3=O)NC(=O)NC2=O)cc1 [Compound 2234]
30 | 145 | COc1ccc2c(c1F)C(=O)N(C[C@@]1(c3cc4c5c(ccc4o3)C3(CC5)NC(=O)NC3=O)NC(=O)NC1=O)C2 (some centres unmarked) [Compound 2216]
31 | 307 | COc1ccc2c(c1)C(=O)N(C[C@@]1(c3cc4nc(C(=N)N)ccc4o3)NC(=O)NC1=O)C2 [Compound 2200]
32 | 91 | COc1ccc2c(c1)C(=O)N(C[C@@]1(C#Cc3ccc(C(=NO)N(C)CCN(C)C)cc3)NC(=O)NC1=O)C2 [Compound 2228]
33 | 1370 | COc1ccc2c(c1)CCN(C[C@@]1(c3cc4cnccc4o3)NC(=O)NC1=O)C2=O [Compound 2219]
34 | 434 | COc1ccc2c(c1)C(=O)N(C[C@@]1(C#Cc3ccc(C(=O)NS(N)(=O)=O)cc3)NC(=O)NC1=O)C2 [Compound 2230]
35 | 1180 | COc1ccc2c(c1)C(=O)N(C[C@@]1(C#Cc3ccc(C(C(N)=O)N4CCCN(C(=O)OC(C)(C)C)CC4)cc3)NC(=O)NC1=O)C2 (some centres unmarked) [Compound 2237]
36 | 570 | COc1ccc2c(c1)C(=O)N(C[C@@]1(c3cc4c5c(ccc4o3)C3(CCC5)NC(=O)NC3=O)NC(=O)NC1=O)C2 (some centres unmarked) [Compound 2211]
37 | 1010 | COc1ccc2c(c1)C(=O)N(C[C@@]1(c3cc4ccc5c(c4o3)CCC53NC(=O)NC3=O)NC(=O)NC1=O)C2 (some centres unmarked) [Compound 2214]
38 | ≥ 10000 | COc1c(Cl)cc2c(c1Cl)C(=O)N(C[C@@]1(c3cc4cnccc4o3)NC(=O)NC1=O)C2 [Compound 2201]
39 | 96 | CCN(CC)CCN(C)C(=NO)c1ccc(C#C[C@]2(CN3Cc4ccc(OC)cc4C3=O)NC(=O)NC2=O)cc1 [Compound 2229]
40 | 1020 | COc1ccc2c(c1)C(=O)N(C[C@@]1(C#Cc3ccc(C(C(=O)O)N4CCCN(C(=O)OC(C)(C)C)CC4)cc3)NC(=O)NC1=O)C2 (some centres unmarked) [Compound 2238]
41 | 267 | COc1ccc2c(c1)C(=O)N(C[C@@]1(C#Cc3ccc(NC(=S)NCCN4CCOCC4)cc3)NC(=O)NC1=O)C2 [Compound 2239]
42 | 187 | COc1ccc2c(c1)C(=O)N(C[C@@]1(c3cc4c5c(ccc4o3)C3(CC5)NC(=O)NC3=O)NC(=O)NC1=O)C2 (some centres unmarked) [Compound 2210]
43 | 628 | COc1ccc2c(c1)C(=O)N(C[C@@]1(c3cc4ccc5c(c4o3)CCC53CNC(=O)N3)NC(=O)NC1=O)C2 (some centres unmarked) [Compound 2215]
44 | 152 | COc1ccc2c(c1)C(=O)N(C[C@@]1(C#Cc3ccc(C(=NO)N(C)C)cc3)NC(=O)NC1=O)C2 [Compound 2231]
45 | 1270 | COc1ccc2c(c1)C(=O)N(C[C@@]1(C(=O)Cc3nc(NC4CCN(C)CC4)ccc3O)NC(=O)NC1=O)C2 [Compound 2241]
46 | 1000 | COc1ccc2c(c1)C(=O)N(C[C@@]1(c3cc4c5c(ccc4o3)CCC53NC(=O)NC3=O)NC(=O)NC1=O)C2 (some centres unmarked) [Compound 2223]
47 | 1940 | COc1ccc2c(c1)CCN(C[C@@]1(c3cc4c5c(ccc4o3)CNC5=O)NC(=O)NC1=O)C2=O [Compound 2217]
48 | 384 | COc1ccc2c(c1)C(=O)N(C[C@@]1(c3cc4cc(/C(=N\O)N(C)CCN(C)C)ccc4o3)NC(=O)NC1=O)C2 [Compound 2206]

Test system: not listed separately
Experiment: Area under the curve determination of plasma levels in rats (rapid rat AUC)
Type: in vivo
Conditions: Table A, oral, 10 mg/kg, blood 0.5-6 h post-dosing, read-out: RR AUC
Description: Area Under the Curve Determinations of Plasma Levels in Rats (rrAUC)
To gain insight into the pharmacokinetic properties of the compounds of formula (I), plasma levels of the compounds in rats were determined according to the protocol described in Korfmacher, W. A.; Cox, K. A.; Ng, K. J.; Veals, J.; Hsieh, Y.; Wainhaus, S.; Broske, L.; Prelusky, D.; Nomeir, A.; White, R. E. Rapid Commun. Mass Spectrom, 2001, 15, 335, Briefly, rats, after an overnight fast, were dosed orally with the test compound at a dose of 10 mg/kg in a 5 mL/kg dose volume. Blood was collected at 0.5, 1, 2, 3, 4, and 6 h post-dosing. Mass spectrometry using high performance liquid chromatography was used to identify and measure the concentrations of the test compounds in the plasma at the various time points. The parent ion of each test compound was used to identify and quantitate the compounds in plasma.

Row | AUC [µM·h] | SMILES
49 | 0.113 | COC(=O)[C@@](CN1Cc2ccc(OC)c(F)c2C1=O)(NC(N)=O)c1cc2nc(Cl)c(F)cc2o1 [Compound 1304]

Same assay, conditions: Table B, oral, 10 mg/kg, blood 0.5-6 h post-dosing, read-out: RR AUC

Row | AUC [µM·h] | SMILES
50 | 1.6 | COc1ccc2c(c1F)C(=O)N(C[C@@]1(c3cc4c5c(ccc4o3)C3(CC5)NC(=O)NC3=O)NC(=O)NC1=O)C2 (some centres unmarked) [Compound 2216]
51 | 0.055 | COc1ccc2c(c1)C(=O)N(C[C@@]1(c3cc4c5c(ccc4o3)C3(CCC5)NC(=O)NC3=O)NC(=O)NC1=O)C2 (some centres unmarked) [Compound 2211]
52 | 0.128 | COc1ccc2c(c1)C(=O)N(C[C@@]1(c3cc4ccc5c(c4o3)CCC53NC(=O)NC3=O)NC(=O)NC1=O)C2 (some centres unmarked) [Compound 2214]
53 | 0.321 | COc1ccc2c(c1)C(=O)N(C[C@@]1(c3cc4c5c(ccc4o3)C3(CC5)NC(=O)NC3=O)NC(=O)NC1=O)C2 (some centres unmarked) [Compound 2210]
